# Like-named read-outs stand apart in the source and are kept apart here.
# Experiments:
# [1] = Urinary metabolites in 24 h urine by HPLC-MS/MS; assay type: in vivo, FVB mice
# Protocol: The assessment of the urinary elimination after oral and intravenous administration, in the urine fraction collected 24 h post dose, is reported in Table 6. […] To further investigate this issue, we searched for the presence of urinary metabolites in the 24 h urine samples in one mouse per treatment group. We identified at least eight molecules most likely originating from the parent compounds (Table 7; see Supplementary Figure S1 for the hypothesized structures).
# Mice were treated with ZST316 and ZST152 using a dose of 60 mg/Kg (oral gavage) and 30 mg/Kg (intravenous bolus). For pharmacokinetic sampling, blood was collected at 15 and 30 min, and 1, 3, 8, and 24 h post dose. Three mice were analyzed per each time point. After the animals were anesthetized with isoflurane, the blood was drained from the retro-orbital plexus into heparinized tubes, and then centrifuged for 10 min at 4000× g at 4 °C to separate plasma. A 24-h urine fraction was collected in three mice for each drug and route of administration. Plasma and urine samples were stored at −20 °C until analysis by HPLC-MS/MS.
# (§1) […] chromatography was performed using a series 200 HPLC system (Perkin Elmer, Waltham, MA, USA) under gradient conditions with separation on a HILIC column, 3 µm, 100 A, 2.1 × 150 mm (Waters, Milford, MA, USA), coupled with a 3 µm, 3.9 × 5.0 mm guard column of the same material at the flow rate of 0.2 mL/min. Gradient features: 10% mobile phase (MP) A (NH4HCO2 10 mM, 10% CH3CN, 0.1% HCOOH) and 90% MP B (CH3CN, 0.1% HCOOH) as the initial constant condition; then to 90% MP A in 6 min and the constant condition for 1.5 min. Return to the start condition in 0.5 min and conditioning for 5.5 min. Total run time: 13.5 min. Mass spectrometric detection was performed using an API 4000 triple quadrupole mass spectrometer (SCIEX, Framingham, MA, USA) supplied with a Turbo Ion Spray source set at 350 °C and −4200 V, analyzing biological samples with electrospray ionization (ESI) operating in negative ion mode. Purified air was used as nebulizer gas (Gas 1) and heater gas (Gas 2) and N2 was used as curtain gas and collision activated dissociation gas. They were set to 40, 50, 20, and 4 instrument units (psi), respectively. The declustering potential (DP) was set at −119 V and the collision exit potential (CXP) at –10 V. All parameters of the source were defined by direct infusion of ZST316 and ZST152 1 µg/mL in mobile phase B. The final quantification was carried out in Selected Reaction Monitoring (SRM) with the following transitions: m/z 307.9 → 208.0 (collision energy of −29.5 eV) for ZST316 and m/z 271.9 → 170.9 (collision energy −24.7 eV) for ZST152 (Figure 2 and Figure 3). Data were processed with the software package Analyst 1.6.2 (AB SCIEX).
# [2] = Stability in mouse plasma and urine; assay type: in vitro ADME; settings: for stability in urine stored frozen: mice urine, −20 °C
# Protocol: The extraction recovery, established on QCs at the concentrations of LLOQ (i.e., 5 ng/mL), at 15 and 250 ng/mL, fell in the range 88.9%–94.6% and 87.9%–117.5% for ZST316 and ZST152, respectively. The LLOQ in plasma was 5.0 ng/mL for both compounds, with precision of 7.1% and 4.1% and accuracy of 95.8% and 106.1% (n = 6) for ZST316 and ZST152, respectively (Table 1). We decided to validate this value as LLOQ even though the limit of detection (LOD) reached in the initial set up phase of the methods was established for both compounds at 1 ng/mL (S/N > 4.0). However, such sensitivity was not required as the expected range of activity (IC50) was markedly higher than the LLOQ value for both compounds. The linearity of the method, evaluated over three different analytical runs in the concentration range 5.0–500.0 ng/mL, was acceptable for both analytes, with an average coefficient of determination (R^2) of 0.990 and 0.992 for ZST316 and ZST152, respectively. […] Both ZST316 and ZST152 were stable in frozen plasma for at least one month at −20 °C. No chromatographic carry-over effect was observed injecting a blank sample after the highest standard calibration point. The method was considered suitable for preclinical pharmacokinetic investigations.
# Both ZST316 and ZST152 were stable at 37 °C in mice urine for at least 24 h and stored frozen at −20°C for one month. No chromatographic carry-over effect was observed injecting a blank sample after the highest standard calibration point.
# [3] = Plasma pharmacokinetics and urinary elimination after acute and chronic intraperitoneal administration; assay type: in vivo, FVB mice
# Protocol: (§2) In this study, 18 mice received a single dose and were sampled within 24 h, and the other 18 were treated every day for three weeks (qdx21) and sampled on day 21. Mice were monitored daily for clinical signs of toxicity and distress, and body weight was measured at least twice a week. Blood samples were collected after both treatment regimens at 15 and 30 min, and 1, 3, 8, and 24 h post dose. Three mice were analyzed for each time point. After the animals were anesthetized with isoflurane, the blood was drained from the retro-orbital plexus into heparinized tubes, and then centrifuged for 10 min at 4000 g at 4 °C to separate plasma. A 24-h urine fraction was collected in three mice for each drug and route of administration. Plasma and urine samples were stored at −20 °C until analysis by HPLC-MS/MS.
# as §1
# Pharmacokinetic parameters and descriptive statistics (means, standard deviations, percentages) were calculated using Phoenix WinNonlin V 8.3 (Certara Inc., Princeton, NJ, USA).
# [4] = Tolerability of chronic intraperitoneal treatment (clinical signs, body weight); assay type: in vivo; settings: i.p. 30 mg/Kg/day for three weeks
# Protocol: as §2
# [5] = after intravenous ZST152, total dose 1.410 mg, mouse #1, 24 h urine
# [6] = after oral ZST152, total dose 1.158 mg, mouse #3, 24 h urine
# [7] = FVB, mouse, plasma, ip, i.p. 30 mg/Kg, acute
# [8] = FVB, mouse, plasma, ip, i.p. 30 mg/Kg/day, chronic
# [9] = after intravenous ZST316, total dose 1.326 mg, mouse #1, 24 h urine
# [10] = after oral ZST316, total dose 1.308 mg, mouse #3, 24 h urine
structure (smiles),measurement,setting,value
COCCNC(=N)NCCC[C@H](N)c1noc(=O)[nH]1 [ZST152],% of Dose recovered in urine,[1]; [5],10.5%
same,Amount Recovered in urine,[1]; [5],148 µg
same,% of Dose recovered in urine,[1]; [6],6.5%
same,Amount Recovered in urine,[1]; [6],75.0 µg
same,stability in mice urine at 37 °C,[2],at least 24 h
same,stability in urine stored frozen,[2],one
COCCNC(=N)NCCC[C@H](N)C(=O)NS(C)(=O)=O [ZST316],AUC(0-t),"[3]; FVB, mouse, plasma, ip, 30 mg/kg, i.p. 30 mg/Kg, acute, read-out: AUC 0-8h",14300 ng·h/mL
same,AUC(0-t),"[3]; FVB, mouse, plasma, ip, 30 mg/kg, i.p. 30 mg/Kg, acute, read-out: AUC 0-last",14400 ng·h/mL
same,AUC(0-t),"[3]; FVB, mouse, plasma, ip, 30 mg/kg/day, i.p. 30 mg/Kg/day, chronic, read-out: AUC 0-8h",12300 ng·h/mL
same,AUC(0-t),"[3]; FVB, mouse, plasma, ip, 30 mg/kg/day, i.p. 30 mg/Kg/day, chronic, read-out: AUC 0-last",12600 ng·h/mL
same,AUC(0-inf),[3]; [7],14500 ng·h/mL
same,Tmax,[3]; [7],0.25 h
same,half-life,[3]; [7],5.7 h
same,Cmax,"[3]; FVB, mouse, plasma, ip, i.p. 30 mg/Kg, acute (single dose)",40200 ng/mL
same,bioavailability,"[3]; FVB, mouse, plasma, ip, i.p. 30 mg/Kg, acute, read-out: F % (bioavailability)",67%
same,Cmax at 21 days,"[3]; FVB, mouse, plasma, ip, i.p. 30 mg/Kg/day for three weeks, chronic (day 21)",33600 ng/mL
same,AUC(0-inf),[3]; [8],12700 ng·h/mL
same,Tmax,[3]; [8],0.25 h
same,half-life,[3]; [8],8.4 h
same,bioavailability at 21 days,"[3]; FVB, mouse, plasma, ip, i.p. 30 mg/Kg/day, chronic, read-out: F % (bioavailability)",59%
same,24-h urinary excretion (% of dose),"[3]; i.p. 30 mg/Kg, acute",56.1 % of dose
same,"urinary excretion, % of the administered dose","[3]; i.p. 30 mg/Kg, acute/chronic not distinguished",55%
same,accumulation after chronic treatment,"[3]; i.p. 30 mg/Kg/day for three weeks, 30 mg/kg/day",no accumulation was observed
same,24-h urinary excretion (% of dose),"[3]; i.p. 30 mg/Kg/day, chronic",54.1 % of dose
same,% of Dose recovered in urine,[1]; [9],3.1%
same,Amount Recovered in urine,[1]; [9],41.2 µg
same,% of Dose recovered in urine,[1]; [10],2.2%
same,Amount Recovered in urine,[1]; [10],28.9 µg
same,stability in mice urine at 37 °C,[2],at least 24 h
same,stability in urine stored frozen,[2],one
same,tolerability of chronic treatment,[4],well tolerated
same,body weight during treatment vs. untreated animals,[4]; 30 mg/kg/day,no changes in body weight vs. untreated animals
same,clinical signs of toxicity or distress,[4]; 30 mg/kg/day,no clinical signs of toxicity or distress were noticed

# Reference: paper PMC8840040, “Pharmacokinetic Characterization of the DDAH1 Inhibitors ZST316 and ZST152 in Mice Using a HPLC-MS/MS Method” (Molecules, 2022)
